Here are results for two compounds from patent publication US20060166934A1, “Composition comprising phytosphingosine derivatives for apoptosis induction” (Tae-Yoon Kim, priority 2002, published 2006).

Some results are limits rather than exact numbers.

The subject of data set [1] is HaCaT cells. Description: TUNEL assay, induction of apoptosis. Type of data set: cell-based, human. The note with it: for cell death (TUNEL): 10 μM and 30 μM, 24 hours, FIG. 6; for time after treating at which apoptosis is induced: 30 μM, FIG. 7. How it is done:
Induction of apoptosis of HaCaT cells by the compositions of the present invention is observed in the TUNEL-TdT-mediated dUTP nick end labeling-assay by using in situ cell death detection kit, POD (Enzo, 1684817, Boeringer Mannhein).
In the TC chamber (Lab-TEK chamber Slide w/cover Permanox Slide sterile 1 well, 177410), 1×10^6 HaCaT cells are seeded and cultured on the DMEM medium for longer than 18 hours and treated with phytosphingosine derivatives. The cells are fixed 24 hours after treating with drugs, and the endogenous peroxidase is blocked with a blocking solution (3% H2O2 in MeOH), and permeation of cells is increased by using a permeabilization solution (0.1% Triton X-100 in 0.1% sodium citrate). Then apoptotic cells are labeled by using the mixture of tunnel reaction and are colored by using the DAB substrate (DAKO, K3465). Colored cells are observed by using a microscope.

The test system of data set [2] is human umbilical vein endothelial cells (HUVEC). Briefly: MTT assay, cytotoxicity in HUVEC. To be noted: for Cell viability: HUVEC, con = 100, in %. Type of data set: cell-based. How it is done:
(§1) Firstly, the cytotoxicity is measured by the MTT assay. Phytosphingosine (PS), phytosphingosine-HCl (PS-HCl), C6-phytosphingosine (C6-PS), CLA-phytosphingosine (CLA-PS), tetraacetyl phytosphingosine (TAPS), and N-acetyl phytosphingosine (NAPS) are dissolved into DMSO to have the final concentration of 1-100 μM.
(§2) In order to study the effects of the compositions of the present invention on the cytotoxicity in the human keratinocyte cell line HaCaT cells, the cell viability is analyzed by the MTT (3-[4,5-dimethylthiazol-2-yl]-2,5-diphenyltetrazolium bromide) assay. HaCaT cells are supplied by Professor N. Fuseng of German Cancer Research in Germany. HaCaT cells are seeded in a density of 1×10^6 cells in a […] and cultured in DMEM (Dulbecco's Modified Eagle Medium) containing 10% fetal bovine serum (FBS, GIBCO), 100 units/ml penicillin, and 100 μg/ml streptomycin for 48 hours. They are treated with trypsin and 1-2×10^4 cells per well are seeded again in a 96-well plate by using a serum-free culture medium, about 3 hours after which they are cultured by treatment with phytosphingosine derivatives. After they are cultured for 24 hours, the MTT reagent is added at a concentration of 2 mg/ml, cultured for 4 hours, suspended in DMSO after removing the culture medium completely in order to measure O.D. at 540 nm. C2-ceramide is used for comparison.
The MTT assay is used for the above purpose. Primary human umbilical vein endothelial cells are cultured from the human umbilical vein. The method of cell culture and the MTT assay are the same as those in the above. C2-ceramide is used for comparison.
On the technique in general: Tetrazolium dyes change colour on reduction, which living cells bring about.

Data set [3] concerns human keratinocyte cell line HaCaT cells. Briefly: MTT assay, cytotoxicity in human keratinocyte cell line. Format: cell-based. The note with it: for Cell viability: 24 hours, con = 100, in %. The procedure:
as §1, §2

Data set [4] deals with Th1 cells activation against allogenic cells (PBMC). Briefly: Reactions among allogenic cells, Th1 cells activation, MTT assay. Type of data set: cell-based, human. To be noted: FIG. 5. From the text:
Whether the composition of the present invention has a suppressive effect on the Th1 cells activation by allogenic cells in immune reation was examined.
PBMC obtained from different volunteers as described in the above 5 were used for responder cells and stimulator cells respectively. PBMC for stimulator cells were used after X-ray irradiation (3000 rad) to inhibit the proliferation of stimulator cells.
(§3) Each 2×10^5 responder cells and stimulator cells were mixed with each other and cultured for 5 days on the 96-well plate. And RPMI with 10% of serum was used as a medium.
(§4) The above cells were cultured for 24 hours in the presence of 1, 10, 50 and 100 μM of NAPS, TAPS, and PS to examine the proliferation of the cells.
(§5) C2-ceramide was used as control.

Data set [5] relates to Th1 cells activation. Description: Mixed leukocyte reaction (MLR), Th1 cells activation by TNBSO3, MTT assay. Type of data set: cell-based, mice. To be noted: MLR with TNBSO3-conjugated stimulator cells, FIG. 4. The procedure: Whether the composition of the present invention has a suppressive effect on the Th1 cells activation which isolate […], IL-12, etc. by reacting with TNBSO3 […] was examined.
The mononuclear cells obtained from spleen of mice as described the above 4 were used for responder cells, and TNBSO3-conjugated cells were used for stimulator cells. The stimulator cells were obtained as follows:
The mononuclear cells were adjusted to be 2×10^7 cells/ml in PBS and the same volume of 20 mM TNBSO3 was added and incubated at 37° C. for 10 min in the dark state. After incubation, the cells wrer washed three times with PBS.
as §3, §4, §5

Data set [6] has as its system A431 cells, human skin cancer cell line. Description: MTT assay, cytotoxicity in human skin cancer cell line. Type of data set: cell-based. To be noted: for Cell viability: A431, con = 100, in %. The procedure:
as §1, §2
In order to study the effects of the compositions of the present invention on the cytotoxicity in A431 cells, human skin cancer cell line, the MTT assay is used. The method of cell culture and MTT assay are the same as those in the above method. C2-ceramide is used for comparison.

In data set [7] the test system is caspase-3. Description: Immunoblot analysis of active caspase-3. The note with it: HaCaT, FIG. 11; for time to maximum active caspase-3: after treatment; for maximum increase of active caspase-3 (expression of induction): immunoblot. Type of data set: cell-based, human. The procedure:
In the confirmation of apoptosis-related proteins, the immunoblot analysis is performed in order to look into the effects of the compositions of the present invention on the expression of caspase-3, p53, and Chk1 proteins related to the induction of apoptosis.
HaCaT cells are cultured on a 100-mm dish and collected at the indicative time. The proteins are extracted by adding 500 μl of RIPA lysis buffer (1% Nonidet P-40, 1% sodium deoxycholate, 0.1% SDS, […], 0.01 M sodium phosphate, pH 7.2, 2 mM EDTA, 50 mM sodium fluoride and 0.2 mM sodium vanadate), and the concentration is measured by using the Bradford method. 1
Extracted proteins is electrophoresed on 12% polyacrylamide gel, and they are transferred to the nitrocellulose membrane. The membrane blocked with 5% non-fat milk is reacted with the primary antibodies (caspase-3, p53, and Chk1), washed, and reacted with the secondary HRP-conjugated antibody. The intensity of proteins is analyzed by using the ECL kit.
(In western blotting, separated proteins are transferred to a membrane and probed.)

Data set [8] concerns HaCaT cells human keratinocyte cell line. Description: MTT assay, combined administration with Vit D3 or calcipotriol. Format: cell-based. How it is done:
In order to study the synergistic effect in the cytotoxicity when the compositions of the present invention are administered in combination with Vit D3 or calcipotriol, the cell viability is analyzed by MTT assay method in HaCaT cells human keratinocyte cell line.
To HaCaT cells, 1 μM of Vit D3 or calcipotriol, or 10 μM each of NAPS and TAPS, is administered singly or in combination with each other, and they are cultured for 24 hours. And the effects of these drugs on the cytotoxicity according to the single or combined administration are observed by MTT assay. C2-ceramide is used for comparison.

On to `CCCCCCCCCCCCCC[C@@H](O)[C@@H](O)[C@H](CO)NC(C)=O` [NAPS, N-acetyl phytosphingosine], for which, in data set [1], the “cell death (TUNEL)” value is on record as “most significant effect of cell death” and the “time after treating at which apoptosis is induced” value was 4 h. The cytotoxicity in data set [2] (human, 24 h, 30 μM) is listed as 86-91%. In data set [3] (human, 24 h, 30 μM), this compound had a cytotoxicity of 83%. In data set [4], the “concentration showing a suppressive effect on Th1 cells activation against allogenic cells” value amounted to 50 μM. The “concentration showing a suppressive effect on Th1 cells activation” value in data set [5] came to 50 µM. Also, the cytotoxicity in data set [6] (human, 24 h, 50 μM) is reported as 95-98%. Also, in data set [7], the “time after treatment at which cleavage to active caspase-3 is increased significantly” value came to 30 min, the “time for which increased active caspase-3 is maintained” value was found to be 12 h, the “time to maximum active caspase-3” value was not above 3 h and the “maximum increase of active caspase-3 (expression of induction)” value is reported as 6 folds. For the same compound, in data set [8] (human, 24 h, 10 µM), the Cell viability amounted to 86 ± 2 and the cytotoxicity was 14%.
For tetraacetyl phytosphingosine [TAPS], in data set [1], the “cell death (TUNEL)” value was “most significant effect of cell death”. Further, in data set [1], the “time after treating at which apoptosis is induced” value was determined as 4 h. Further, the Cell viability was 47 ± 8.4 in data set [2] (3.5 μM); 22 ± 1.9 in data set [2] (7 μM); 15 ± 0.7 in data set [2] (15 μM); 9 ± 0.5 in data set [2] (30 μM); 94 ± 0.1 in data set [3] (1 μM, HaCaT); 93 ± 2.9 in data set [3] (3 μM, HaCaT). Also, the Cell viability in data set [3] (10 μM, HaCaT) worked out at 76 ± 1.4; in data set [3] (30 μM, HaCaT) it was 17 ± 1.1; in data set [6] (3 μM), 113 ± 11.2; in data set [6] (10 μM) it was 83 ± 13.9; in data set [6] (30 μM) it was 12 ± 1.7; in data set [6] (50 μM), 5 ± 1.2. Also, the Cell viability in data set [8] (10 μM combined with Vit D3 (1 μM), 24 hours, HaCaT, in %) came out at 34 ± 4; in data set [8] (10 μM combined with calcipotriol (1 μM), 24 hours, HaCaT, in %), 36 ± 8; in data set [8] (10 μM singly, 24 hours, HaCaT, in %), 76 ± 2. Further, the cytotoxicity is on record as 83% in data set [3] (30 μM, HaCaT); 66% in data set [8] (10 μM combined application with Vit D3); 64% in data set [8] (10 μM combined application with calcipotriol); 24% in data set [8] (10 μM single administration). Moreover, the “suppressive effect on Th1 cells activation against allogenic cells” value in data set [4] (50 μM) is reported as “suppress completely”. Besides, the “concentration showing a suppressive effect on Th1 cells activation against allogenic cells” value in data set [4] was 50 μM. In data set [5], the “concentration showing a suppressive effect on Th1 cells activation” value came out at 10 µM. Moreover, the “time for which increased active caspase-3 is maintained” value in data set [7] came out at 24 h. In addition, the “time to maximum active caspase-3” value in data set [7] was not above 3 h. The “maximum increase of active caspase-3 (expression of induction)” value in data set [7] was 5 folds.
